Assays:
Assay in all cases: Test C postemergence
Format in all cases: in vivo
[1] = system: wheat (Triticum aestivum); conditions: for plant injury at 125 g/ha: Triticum aestivum, post-emergence, 125 g ai/ha, scale 0 to 100 (0 no effect, 100 complete control), read-out: Wheat plant response rating
Method in brief: (§1)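 Applications: preemergence onto seeded soil and postemergence onto 1- to 4-leaf seedlings, compound carried in non-phytotoxic solvent plus surfactant. Kept in greenhouse 12 to 14 days. Scored visually relative to untreated controls, 0 (no effect) to 100 (complete control).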

[2] = system: wild oat (Avena fatua); conditions: for pest or weed control at 125 g/ha: Avena fatua, post-emergence, 125 g ai/ha, scale 0 to 100 (0 no effect, 100 complete control), read-out: Oat, Wild plant response rating
Method in brief: as §1

[3] = system: Italian ryegrass (Lolium multiflorum); conditions: for pest or weed control at 125 g/ha: Lolium multiflorum, post-emergence, 125 g ai/ha, scale 0 to 100 (0 no effect, 100 complete control), read-out: Ryegrass, Italian plant response rating
Method in brief: as §1

[4] = system: windgrass (Apera spica-venti); conditions: for pest or weed control at 125 g/ha: Apera spica-venti, post-emergence, 125 g ai/ha, scale 0 to 100 (0 no effect, 100 complete control), read-out: Windgrass plant response rating
Method in brief: as §1

[5] = system: green foxtail (Setaria viridis); conditions: for pest or weed control at 125 g/ha: Setaria viridis, post-emergence, 125 g ai/ha, scale 0 to 100 (0 no effect, 100 complete control), read-out: Foxtail, Green plant response rating
Method in brief: as §1

[6] = system: downy brome (Bromus tectorum); conditions: for pest or weed control at 125 g/ha: Bromus tectorum, post-emergence, 125 g ai/ha, scale 0 to 100 (0 no effect, 100 complete control), read-out: Bromegrass, Downy plant response rating
Method in brief: as §1

[7] = system: blackgrass (Alopecurus myosuroides); conditions: for pest or weed control at 125 g/ha: Alopecurus myosuroides, post-emergence, 125 g ai/ha, scale 0 to 100 (0 no effect, 100 complete control), read-out: Blackgrass plant response rating
Method in brief: as §1

[8] = system: winter barley (Hordeum vulgare); conditions: for plant injury at 62 g/ha / plant injury at 125 g/ha: Hordeum vulgare, post-emergence, scale 0 to 100 (0 no effect, 100 complete control), read-out: Barley plant response rating; for plant injury at 62 g/ha: 62 g ai/ha; for plant injury at 125 g/ha: 125 g ai/ha
Method in brief: as §1

[9] = system: canarygrass (Phalaris minor); conditions: for pest or weed control at 125 g/ha: Phalaris minor, post-emergence, 125 g ai/ha, scale 0 to 100 (0 no effect, 100 complete control), read-out: Canarygrass plant response rating
Method in brief: as §1

| SMILES | Plant response rating (scale of 0 to 100), Wheat ([1]; 31 g ai/ha) | Plant response rating (scale of 0 to 100), Wheat ([1]; 62 g ai/ha) | plant injury at 125 g/ha [1] [%] | Plant response rating (scale of 0 to 100), Oat, Wild ([2]; 31 g ai/ha) | Plant response rating (scale of 0 to 100), Oat, Wild ([2]; 62 g ai/ha) | pest or weed control at 125 g/ha [2] [%] | Plant response rating (scale of 0 to 100), Ryegrass, Italian ([3]; 31 g ai/ha) | Plant response rating (scale of 0 to 100), Ryegrass, Italian ([3]; 62 g ai/ha) | pest or weed control at 125 g/ha [3] [%] | Plant response rating (scale of 0 to 100), Windgrass ([4]; 31 g ai/ha) | Plant response rating (scale of 0 to 100), Windgrass ([4]; 62 g ai/ha) | pest or weed control at 125 g/ha [4] [%] | Plant response rating (scale of 0 to 100), Foxtail, Green ([5]; 31 g ai/ha) | Plant response rating (scale of 0 to 100), Foxtail, Green ([5]; 62 g ai/ha) | pest or weed control at 125 g/ha [5] [%] | Plant response rating (scale of 0 to 100), Bromegrass, Downy ([6]; 31 g ai/ha) | Plant response rating (scale of 0 to 100), Bromegrass, Downy ([6]; 62 g ai/ha) | pest or weed control at 125 g/ha [6] [%] | Plant response rating (scale of 0 to 100), Blackgrass ([7]; 31 g ai/ha) | Plant response rating (scale of 0 to 100), Blackgrass ([7]; 62 g ai/ha) | also measured |
| --- | --- | --- | --- | --- | --- | --- | --- | --- | --- | --- | --- | --- | --- | --- | --- | --- | --- | --- | --- | --- | --- |
| Nc1nc(C2CC2)nc(C(=O)OCc2ccccc2)c1Cl [Compound 78, phenylmethyl 6-amino-5-chloro-2-cyclopropyl-4-pyrimidinecarboxylate] | 20 | 20 | 30 | 5 | 10 | 60 | 0 | 10 | 20 | 5 | 30 | 30 | 25 | 40 | 70 | 5 | 10 | 15 | 0 | 5 | Plant response rating, Wheat ([1]; 250 g ai/ha, scale 0 to 100): 55; Plant response rating, Oat, Wild ([2]; 250 g ai/ha, scale 0 to 100): 60; Plant response rating, Ryegrass, Italian ([3]; 250 g ai/ha, scale 0 to 100): 25; Plant response rating, Windgrass ([4]; 250 g ai/ha, scale 0 to 100): 40; Plant response rating, Foxtail, Green ([5]; 250 g ai/ha, scale 0 to 100): 75; Plant response rating, Bromegrass, Downy ([6]; 250 g ai/ha, scale 0 to 100): 55; Plant response rating, Blackgrass ([7]; 250 g ai/ha, scale 0 to 100): 50; pest or weed control at 125 g/ha [7]: 5%; Plant response rating (scale of 0 to 100), Barley ([8]; 31 g ai/ha): 5; Plant response rating, Barley ([8]; 250 g ai/ha, scale 0 to 100): 90; plant injury at 62 g/ha [8]: 5%; plant injury at 125 g/ha [8]: 30%; Plant response rating (scale of 0 to 100), Canarygrass ([9]; 31 g ai/ha): 0; Plant response rating (scale of 0 to 100), Canarygrass ([9]; 62 g ai/ha): 0; Plant response rating, Canarygrass ([9]; 250 g ai/ha, scale 0 to 100): 0; pest or weed control at 125 g/ha [9]: 0% |
| CNc1nc(C2CC2)nc(C(=O)OC)c1Cl [Compound 79] | 20 | 30 | 40 | 25 | 25 | 45 | 35 | 40 | 45 | 40 | 45 | 50 | 20 | 30 | 60 | 20 | 30 | 35 | 40 | 60 | Plant response rating (scale of 0 to 100), Wheat ([1]; 16 g ai/ha): 0; Plant response rating (scale of 0 to 100), Oat, Wild ([2]; 16 g ai/ha): 0; Plant response rating (scale of 0 to 100), Ryegrass, Italian ([3]; 16 g ai/ha): 35; Plant response rating (scale of 0 to 100), Windgrass ([4]; 16 g ai/ha): 40; Plant response rating (scale of 0 to 100), Foxtail, Green ([5]; 16 g ai/ha): 20; Plant response rating (scale of 0 to 100), Bromegrass, Downy ([6]; 16 g ai/ha): 0; Plant response rating (scale of 0 to 100), Blackgrass ([7]; 16 g ai/ha): 20; pest or weed control at 125 g/ha [7]: 60%; Plant response rating (scale of 0 to 100), Barley ([8]; 16 g ai/ha): 0; Plant response rating (scale of 0 to 100), Barley ([8]; 31 g ai/ha): 30; plant injury at 62 g/ha [8]: 35%; plant injury at 125 g/ha [8]: 35%; Plant response rating (scale of 0 to 100), Canarygrass ([9]; 16 g ai/ha): 0; Plant response rating (scale of 0 to 100), Canarygrass ([9]; 31 g ai/ha): 20; Plant response rating (scale of 0 to 100), Canarygrass ([9]; 62 g ai/ha): 25; pest or weed control at 125 g/ha [9]: 35% |

Reference: patent US8802597B2, “Herbicidal pyrimidines” (E I du Pont de Nemours and Company, priority 2003, dated 2014)
